# ChEMBL document CHEMBL1140513, “Heteroatom-linked indanylpyrazines are corticotropin releasing factor type-1 receptor antagonists” (Bioorg Med Chem Lett, 2007)
# Molecular target: T1, Corticotropin-releasing factor receptor 1 (Homo sapiens, UniProt P34998)
# T1 sequence (P34998 whole entry): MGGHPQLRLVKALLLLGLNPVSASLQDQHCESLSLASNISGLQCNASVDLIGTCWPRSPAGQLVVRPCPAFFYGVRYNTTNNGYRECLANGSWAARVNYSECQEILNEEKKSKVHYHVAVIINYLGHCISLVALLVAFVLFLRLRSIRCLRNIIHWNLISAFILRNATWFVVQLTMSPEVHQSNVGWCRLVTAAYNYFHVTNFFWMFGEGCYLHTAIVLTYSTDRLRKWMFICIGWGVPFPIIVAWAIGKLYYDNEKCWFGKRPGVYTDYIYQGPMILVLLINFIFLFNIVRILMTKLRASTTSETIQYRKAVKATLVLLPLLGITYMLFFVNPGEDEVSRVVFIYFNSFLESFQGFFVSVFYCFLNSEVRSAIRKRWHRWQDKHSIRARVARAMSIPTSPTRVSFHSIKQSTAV
# Assay: Displacement of [125I]Tyr-o-CRF from CRF1 receptor in IMR32 cells
# Format: cell-based, IMR-32
row,Ki [nM],Compound
1,5470,CCO[C@H]1Cc2ccccc2[C@@H]1Nc1nc(CC)c(Oc2cc(C)ccn2)nc1CC
2,509,CCO[C@H]1Cc2ccccc2[C@H]1Nc1nc(CC)c(Oc2ncccc2C)nc1CC
3,> 10000,CCc1nc(Oc2cc(C)ccn2)c(CC)nc1NC(CC)CC
4,> 10000,CCc1nc(NC(CC)CC)c(CC)nc1Nc1ccc([N+](=O)[O-])cn1
5,> 10000,CCc1nc(Oc2cc(C)ccn2)c(CC)nc1N[C@H]1c2ccccc2C[C@H]1O
6,472,CCO[C@H]1Cc2ccccc2[C@H]1Nc1nc(CC)c(Oc2cccc(C)n2)nc1CC
7,> 10000,CCO[C@@H]1Cc2ccccc2[C@H]1Nc1nc(CC)c(Oc2cc(C)ccn2)nc1CC
8,> 10000,CCc1nc(NC(CC)CC)c(CC)nc1Nc1ccc(Cl)cc1Cl
9,35,CCO[C@H]1Cc2ccccc2[C@H]1Nc1nc(CC)c(Oc2cc(C)ccn2)nc1CC
10,384,CCOCC(Nc1nc(CC)c(Oc2cc(C)ccn2)nc1CC)c1ccccc1 (centres undefined)
11,2020,CCc1nc(Oc2cc(C)ccn2)c(CC)nc1N[C@@H]1c2ccccc2C[C@@H]1OC(C)=O
12,> 10000,CCc1nc(NC(CC)CC)c(CC)nc1Nc1ccccn1
13,115,CCc1nc(NC(CC)CC)c(CC)nc1Nc1ncc(Cl)cc1Cl
14,> 10000,CCO[C@@H]1Cc2ccccc2[C@@H]1Nc1nc(CC)c(Oc2cc(C)ccn2)nc1CC
15,1730,CCc1nc(N[C@@H]2c3ccccc3C[C@@H]2OCCF)c(CC)nc1Nc1ncc(Cl)cc1Cl
16,> 10000,CCc1nc(NC(CC)c2ccccc2)c(CC)nc1Nc1ncc(Cl)cc1Cl (centres undefined)
17,3380,CCc1nc(NC(CC)CC)c(CC)nc1Nc1cccc(C)n1
18,711,CCCN(CCC)c1nc(CC)c(Oc2cc(C)ccn2)nc1CC
19,30,CCCO[C@H]1Cc2ccccc2[C@H]1Nc1nc(CC)c(Oc2cc(C)ccn2)nc1CC
